Structures can show the parent of a compound that is named as a salt. Where two headings read alike, the source gives them in different places.
Legend:
in vivo = conditions: for LD50: read-out: Toxicity: LD50; for mortality: read-out: Toxicity (Mortality)
Text: *LD50 or percentage of mortality which is given between brackets

anaesthetized dog = assay: Antiangorous activity on anaesthetized dog: consumption of oxygen in the left ventricule and cardiac effort (KATZ's index); type: in vivo; conditions: for inhibition in vivo at […]: 0.15 mg/kg i.v. slow perfusion
Procedure, shortened: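 Dogs anaesthetized with sodium pentobarbital 30 mg/kg i.v.; compounds given by slow i.v. perfusion. Left ventricular O2 consumption = coronary venous flow (Morawitz cannula in coronary sinus) × arteriovenous O2 difference; cardiac effort (Katz index) = mean arterial pressure × heart rate from D2 ECG.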

[1] = Canis lupus familiaris, iv, 2.5 mg/kg i.v. slow perfusion, read-out: Diminution in consumption of O2
[2] = Canis lupus familiaris, iv, 2.5 mg/kg i.v. slow perfusion, read-out: Diminution in the cardiac effort (IK)
[3] = 0.625 mg/kg i.v. slow perfusion
[4] = Canis lupus familiaris, iv, 0.625 mg/kg i.v. slow perfusion, read-out: Diminution in consumption of O2
[5] = Canis lupus familiaris, iv, 0.625 mg/kg i.v. slow perfusion, read-out: Diminution in the cardiac effort (IK)
[6] = Canis lupus familiaris, iv, 2.3 mg/kg i.v. slow perfusion, read-out: Diminution in consumption of O2
[7] = Canis lupus familiaris, iv, 2.3 mg/kg i.v. slow perfusion, read-out: Diminution in the cardiac effort (IK)

Row | Structure (SMILES) | LD50 (in vivo; iv) [mg/kg] | Diminution in consumption of O2: in time (anaesthetized dog; 2.5 mg/kg i.v. slow perfusion) [min] | inhibition in vivo at 2.5 mg/kg (anaesthetized dog; [1]) [%] | inhibition in vivo at 2.5 mg/kg (anaesthetized dog; [2]) [%] | Diminution in the cardiac effort (IK): in time (anaesthetized dog; 2.5 mg/kg i.v. slow perfusion) [min] | also measured
1 | COc1cc(/C=C/C(=O)N2CCN(CC(O)COc3ccccc3C#N)CC2)cc(OC)c1OC (stereo not shown) [760 389] | 245 | – | – | – | – | Diminution in consumption of O2: in time (anaesthetized dog; 4.5 mg/kg i.v. slow perfusion): 60 min; Diminution in the cardiac effort (IK): in time (anaesthetized dog; 4.5 mg/kg i.v. slow perfusion): 60 min; inhibition in vivo at 4.5 mg/kg (anaesthetized dog; Canis lupus familiaris, iv, 4.5 mg/kg i.v. slow perfusion, read-out: Diminution in consumption of O2): 70%; inhibition in vivo at 4.5 mg/kg (anaesthetized dog; Canis lupus familiaris, iv, 4.5 mg/kg i.v. slow perfusion, read-out: Diminution in the cardiac effort (IK)): 55%
2 | COc1cc(/C=C/C(=O)N2CCN(CC(O)COc3ccc(SC)cc3)CC2)cc(OC)c1OC (stereo not shown) [760 507] | 185 | – | – | – | – | Diminution in consumption of O2: in time (anaesthetized dog; 4.6 mg/kg i.v. slow perfusion): 60 min; Diminution in the cardiac effort (IK): in time (anaesthetized dog; 4.6 mg/kg i.v. slow perfusion): 30 min; inhibition in vivo at 4.6 mg/kg (anaesthetized dog; Canis lupus familiaris, iv, 4.6 mg/kg i.v. slow perfusion, read-out: Diminution in consumption of O2): 68%; inhibition in vivo at 4.6 mg/kg (anaesthetized dog; Canis lupus familiaris, iv, 4.6 mg/kg i.v. slow perfusion, read-out: Diminution in the cardiac effort (IK)): 32%
3 | CCOc1c(OC)cc(/C=C/C(=O)N2CCN(CC(O)COc3ccc(C(C)=O)c4c3OCCO4)CC2)cc1OC (stereo not shown) [770 504] | 145 | 15 | 52 | 10 | – | –
4 | COc1cc(/C=C/C(=O)N2CCN(CC(O)COc3ccccc3NC(C)=O)CC2)cc(OC)c1OC (stereo not shown) [770 738] | – | 45 | 63 | 48 | 45 | mortality (in vivo; iv, 400 mg/kg i.v.): 40%
5 | COc1cc(/C=C/C(=O)N2CCCN(CC(O)COc3ccc(C(C)=O)cc3)CC2)cc(OC)c1OC (stereo not shown) [780 415] | 305 | 30 | 29 | 10 | 30 | –
6 | COc1cc(/C=C/C(=O)N2CCN(CC(O)COCc3ccccc3)CC2)cc(OC)c1OC (stereo not shown) [770 276] | 248 | 23 | 59 | – | – | –
7 | CNC(=O)Nc1ccc(OCC(O)CN2CCN(C(=O)/C=C/c3cc(OC)c(OC)c(OC)c3)CC2)cc1 (stereo not shown) [770 056] | 160 | – | – | – | – | Diminution in consumption of O2: in time (anaesthetized dog; [3]): 15 min; Diminution in the cardiac effort (IK): in time (anaesthetized dog; [3]): 15 min; inhibition in vivo at 0.625 mg/kg (anaesthetized dog; [4]): 49%; inhibition in vivo at 0.625 mg/kg (anaesthetized dog; [5]): 22%
8 | CCc1ccc(OCC(O)CN2CCN(C(=O)/C=C/c3cc(OC)c(OC)c(OC)c3)CC2)c2c1OCCO2 (stereo not shown) [770 142] | 116 | – | – | – | – | Diminution in consumption of O2: in time (anaesthetized dog; 1.1 mg/kg i.v. slow perfusion): 30 min; inhibition in vivo at 1.1 mg/kg (anaesthetized dog; Canis lupus familiaris, iv, 1.1 mg/kg i.v. slow perfusion, read-out: Diminution in consumption of O2): 29%
9 | COc1cc(NC(C)=O)ccc1OCC(O)CN1CCN(C(=O)/C=C/c2cc(OC)c(OC)c(OC)c2)CC1 (stereo not shown) [770 487] | – | 60 | 47 | 14 | – | mortality (in vivo; iv, 400 mg/kg i.v.): 30%
10 | COc1cc(/C=C/C(=O)N2CCN(CC(O)COc3ccc(C(C)=O)c4c3OCCO4)CC2)cc(OC)c1O (stereo not shown) [770 274, 1-[3-(4-acetyl-2,3-ethylenedioxy)phenoxy-2-hydroxy]propyl-4-(3,5-dimethoxy-4-hydroxycinnamoyl)piperazine oxalate] | – | 30 | 41 | 10 | 15 | mortality (in vivo; iv, 336 mg/kg i.v.): 30%
11 | COc1cc(/C=C/C(=O)N2CCN(CC(O)COc3cc(OC)c(OC)c(OC)c3)CC2)cc(OC)c1OC (stereo not shown) [760 506] | 182 | – | – | – | – | Diminution in consumption of O2: in time (anaesthetized dog; 2.3 mg/kg i.v. slow perfusion): 60 min; Diminution in the cardiac effort (IK): in time (anaesthetized dog; 2.3 mg/kg i.v. slow perfusion): 60 min; inhibition in vivo at 2.3 mg/kg (anaesthetized dog; [6]): 67%; inhibition in vivo at 2.3 mg/kg (anaesthetized dog; [7]): 26%
12 | COc1cc(/C=C/C(=O)N2CCN(CC(O)COc3ccc(C(C)=O)cc3C)CC2)cc(OC)c1OC (stereo not shown) [770 993, 1-[3-(2-methyl-4-acetyl)phenyl-2-hydroxy]-propyl-4-(3,4,5-trimethoxycinnamoyl)piperazine chlorhydrate] | 10 | 23 | 53 | 15 | 13 | –
13 | COc1cc(/C=C/C(=O)N2CCN(CC(O)COc3ccc(C)c4c3OCCO4)CC2)cc(OC)c1OC (stereo not shown) [760 847] | – | 60 | 47 | 14 | – | mortality (in vivo; iv, 169 mg/kg i.v.): 20%
14 | COc1cc(/C=C/C(=O)N2CCN(CC(O)COc3ccc(OC(C)=O)c4c3OCCO4)CC2)cc(OC)c1OC (stereo not shown) [780 004] | – | – | – | – | – | mortality (in vivo; iv, 400 mg/kg i.v.): 10%; Diminution in consumption of O2: in time (anaesthetized dog; 1.25 mg/kg i.v. slow perfusion): 30 min; Diminution in the cardiac effort (IK): in time (anaesthetized dog; 1.25 mg/kg i.v. slow perfusion): 15 min; inhibition in vivo at 1.25 mg/kg (anaesthetized dog; Canis lupus familiaris, iv, 1.25 mg/kg i.v. slow perfusion, read-out: Diminution in consumption of O2): 22%; inhibition in vivo at 1.25 mg/kg (anaesthetized dog; Canis lupus familiaris, iv, 1.25 mg/kg i.v. slow perfusion, read-out: Diminution in the cardiac effort (IK)): 14%
15 | COc1cc(/C=C/C(=O)N2CCN(CC(O)COc3ccc(NC(=O)N(C)C)c4c3OCCO4)CC2)cc(OC)c1OC (stereo not shown) [771 233] | 310 | – | – | – | – | inhibition in vivo at […] (anaesthetized dog; Canis lupus familiaris, iv, read-out: Diminution in consumption of O2): 29%; inhibition in vivo at […] (anaesthetized dog; Canis lupus familiaris, iv, read-out: Diminution in the cardiac effort (IK)): 9%
16 | COc1cc(/C=C/C(=O)N2CCN(CC(O)COc3ccc([N+](=O)[O-])c(C)c3)CC2)cc(OC)c1OC (stereo not shown) [770 963] | 190 | 30 | 58 | 66 | 30 | –
17 | COc1cc(/C=C/C(=O)N2CCN(CC(O)COc3ccc(C(N)=O)cc3)CC2)cc(OC)c1OC (stereo not shown) [770 058] | 315 | 30 | 36 | 35 | 30 | –
18 | COc1cc(/C=C/C(=O)N2CCN(CC(O)COc3ccc(Cl)cc3)CC2)cc(OC)c1OC (stereo not shown) [760 476] | 185 | – | – | – | – | Diminution in consumption of O2: in time (anaesthetized dog; 2.3 mg/kg i.v. slow perfusion): 23 min; Diminution in the cardiac effort (IK): in time (anaesthetized dog; 2.3 mg/kg i.v. slow perfusion): 15 min; inhibition in vivo at 2.3 mg/kg (anaesthetized dog; [6]): 70%; inhibition in vivo at 2.3 mg/kg (anaesthetized dog; [7]): 5%
19 | CCOC(=O)Cc1ccc(OCC(O)CN2CCN(C(=O)/C=C/c3cc(OC)c(OC)c(OC)c3)CC2)c2c1OCCO2 (stereo not shown) [770 312] | 259 | – | – | – | – | Diminution in consumption of O2: in time (anaesthetized dog; 0.14 mg/kg i.v. slow perfusion): 30 min; inhibition in vivo at 0.14 mg/kg (anaesthetized dog; Canis lupus familiaris, iv, 0.14 mg/kg i.v. slow perfusion, read-out: Diminution in consumption of O2): 30%; inhibition in vivo at 0.14 mg/kg (anaesthetized dog; Canis lupus familiaris, iv, 0.14 mg/kg i.v. slow perfusion, read-out: Diminution in the cardiac effort (IK)): 9%
20 | COc1cc(/C=C/C(=O)N2CCN(CC(O)COc3ccc(NC(=O)C(C)C)c4c3OCCO4)CC2)cc(OC)c1OC (stereo not shown) [770 692] | – | – | – | – | – | mortality (in vivo; iv, 200 mg/kg i.v.): 60%; Diminution in consumption of O2: in time (anaesthetized dog; [3]): 15 min; Diminution in the cardiac effort (IK): in time (anaesthetized dog; [3]): 30 min; inhibition in vivo at 0.625 mg/kg (anaesthetized dog; [4]): 60%; inhibition in vivo at 0.625 mg/kg (anaesthetized dog; [5]): 45%
21 | COc1cc(/C=C/C(=O)N2CCN(CC(O)COc3cccc4c3OCO4)CC2)cc(OC)c1OC (stereo not shown) [780 138] | 150 | 45 | 46 | 19 | 30 | –
22 | COc1cc(/C=C/C(=O)N2CCN(CC(O)COc3ccc(C#N)c4c3OCCO4)CC2)cc(OC)c1OC (stereo not shown) [770 585] | – | 30 | 75 | 41 | 30 | mortality (in vivo; po, p.o.: 2000 mg/kg): 0%
